In patent US8124807B2, “Sulfonyl-substituted 6-membered ring derivative” (MSD K.K., priority 2007, dated 2012):

What follows are compounds tested against T1, human LCE (Homo sapiens, UniProt Q9H5J4) (assay: LCE enzyme activity-inhibitory test). Conditions: palmitoyl CoA and [14C]-malonyl CoA substrates, pH 6.5, 37° C., 90 minutes.
T1 sequence (Q9H5J4 1-265): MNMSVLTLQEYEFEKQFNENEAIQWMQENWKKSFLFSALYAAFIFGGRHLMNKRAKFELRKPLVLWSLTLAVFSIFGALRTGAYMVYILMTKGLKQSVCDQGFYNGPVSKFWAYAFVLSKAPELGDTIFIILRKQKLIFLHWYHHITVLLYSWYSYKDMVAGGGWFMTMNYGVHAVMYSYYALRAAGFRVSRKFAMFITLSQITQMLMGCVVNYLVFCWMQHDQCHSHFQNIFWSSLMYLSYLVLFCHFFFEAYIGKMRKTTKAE
Format: biochemical
Procedure: A test compound was dissolved in dimethyl sulfoxide (DMSO to be 10 mM), and then diluted with DMSO to prepare a 1000-fold concentrated solution of the test concentration. An improved Moon et al's method (J. Biol. Chem., Vol. 276, pp. 45358-45366, 2001) was employed for the LCE enzyme activity-inhibitor test. Concretely, the diluted compound was applied to a 96-well assay plate (Corning, 96-well assay block) in an amount of 1.0 μL/well; 50 μL of a phosphate buffer solution (100 mM potassium phosphate buffer, pH 6.5), and 25 μL of a substrate solution (100 mM potassium phosphate buffer (pH 6.5), 4.0 μM rotenone, 80 μM fatty acid-free bovine serum albumin, 160 μM palmitoyl CoA, 80 μM malonyl CoA, 3.5 μM [^14C]-malonyl CoA (1.92 GBq/mmol, by Amersham)) were added to each well; 25 μL of an enzyme solution (100 mM potassium phosphate buffer (pH 6.5), 100 μg/mL human LCE) was added thereto; the top of the plate was airtightly sealed up; and this was incubated with gently shaking and stirring at 37° C. for 90 minutes. Next, 100 μL of 5 N hydrochloric acid was added to each well, and the assay plate was stirred at room temperature for 5 minutes to stop the enzyme reaction with hydrolyzing the acyl CoA. Next, the enzyme reaction solution in each well was adsorbed by each well of a 96-well GF/C filter plate (Perkin Elmer Unifilter 96 GF/C); the individual wells were washed with water to remove the non-adsorbed malonyl CoA; and the GF/C filter plate was dried at 50° C. for 60 minutes. Next, 30 μL of a scintillator (Perkin Elmer Microscinti 0) was added to each well; then the top of the plate was sealed up; and the fixed [^14C] radioactivity was measured with a microplate scintillation counter (Perkin Elmer TopCount) to be the enzyme activity. The human LCE enzyme-inhibitory activity of the test compound was calculated, based on the radioactivity of the DMSO-added well with no test compound therein as a control.
An IC50 of 0.233 µM was found for `CC(C)Oc1ccc(NC(=O)[C@@H]2CCC[C@@H](S(=O)(=O)c3ccccn3)C2)cc1` (racemic) [Example 2, (1R*,3R*)-N-(4-isopropoxyphenyl)-3-(pyridin-2-ylsulfonyl)cyclohexanecarboxamide] in this work.
An IC50 of 0.03 µM was found for `CC(C)Oc1ccc(NC(=O)[C@@H]2CCC[C@@H](S(=O)(=O)c3ccccc3)C2)nc1` (racemic) [Example 7, (1R*,3R*)-N-(5-isopropoxypyridin-2-yl)-3-(phenylsulfonyl)cyclohexanecarboxamide] in this work.
An IC50 of 0.043 µM was found for `CC(C)Oc1ccc(NC(=O)[C@@H]2CCC[C@@H](S(=O)(=O)c3ccccn3)C2)nc1` (racemic) [Example 8, (1R*,3R*)-N-(5-isopropoxypyridin-2-yl)-3-(pyridin-2-ylsulfonyl)cyclohexanecarboxamide] in this work.
An IC50 of 0.131 µM was found for `CC(C)Oc1ccc(NC(=O)[C@@H]2CCC[C@@H](S(=O)(=O)c3ccncc3)C2)nc1` (racemic) [Example 9, (1R*,3R*)-N-(5-isopropoxypyridin-2-yl)-3-(pyridin-4-ylsulfonyl)cyclohexanecarboxamide] in this work.
An IC50 of 0.026 µM was found for `CC(C)Oc1ccc(NC(=O)[C@@H]2CCC[C@@H](S(=O)(=O)c3ncccn3)C2)nc1` (racemic) [Example 10, (1R*,3R*)-N-(5-isopropoxypyridin-2-yl)-3-(pyrimidin-2-ylsulfonyl)cyclohexanecarboxamide] in this work.
An IC50 of 0.032 µM was found for `CC(C)Oc1ccc(NC(=O)[C@@H]2CCC[C@@H](S(=O)(=O)c3nccs3)C2)nc1` (racemic) [Example 11, (1R*,3R*)-N-(5-isopropoxypyridin-2-yl)-3-(1,3-thiazol-2-ylsulfonyl)cyclohexanecarboxamide] in this work.
An IC50 of 0.13 µM was found for `CC(C)Oc1ccc(NC(=O)[C@@H]2CCC[C@@H](S(=O)(=O)c3cnccn3)C2)nc1` (racemic) [Example 13, (1R*,3R*)-N-(5-isopropoxypyridin-2-yl)-3-(pyrazin-2-ylsulfonyl)cyclohexanecarboxamide] in this work.
